Results from patent publication US8927063B2, “Compositions for the treatment of timber and other wood substrates” (TimTechChem International Limited, priority 2008, dated 2015).

Experiments:
[1] = Example 3: solubility and formulation stability in ester solvents
Protocol: Further formulation tests were carried out to ascertain if the fungicide IPBC (iodo propyl butyl carbamate, CAS No 55406-53-6) was soluble in ester compounds of formula (I).

[2] = Example 2: solvent evaporation rate from treated wood pieces (daily re-weighing); conditions: 17-22 °C, no external airflow
Protocol: The wood pieces were placed on plastic bearers allowing good access of air to all surfaces and situated in a dedicated room with no external airflow. Air temperatures in the room were mainly in the range 17-22° C.
The wood pieces were re-weighed daily to determine weight loss rates for the various solvents.

| Compound | solubilisation in the esters of the invention [1] | solubility ([1]; in butyl ethanoate) | solubility ([1]; in propyl ethanoate) | % Solvent Remaining in Wood ([2]; After 24 h) | % Solvent Remaining in Wood ([2]; After 48 h) | % Solvent Remaining in Wood ([2]; After 72 h) |
| --- | --- | --- | --- | --- | --- | --- |
| CC(C)(C)C(O)(CCc1ccc(Cl)cc1)Cn1cncn1 (stereo not drawn) [tebuconazole] | good solubilisation |  |  |  |  |  |
| N#Cc1c(Cl)c(Cl)c(Cl)c(C#N)c1Cl [chlorothalonil] |  | less than 1% | less than 1% |  |  |  |
| CCOC(C)=O [ethyl ethanoate] |  |  |  | 3.8% | 0% | 0% |
| CCCCOC(C)=O [n-butyl ethanoate] |  |  |  | 6.9% | 3.1% | 0.8% |
